The inhibition is the change of the read-out against control, counted positive when it falls. High values mean a strong effect, low ones a weak effect.

The values that follow come from patent US7714009B2, “Nitrogen-containing fused heterocyclic compounds” (Takeda Pharmaceutical Company Limited, priority 2003, dated 2010).

A value given as a limit tells only on which side of the number the result lay.

This assay has as its target T1, human CRF receptor (Homo sapiens, UniProt P34998).
T1 construct: expressed in transfected cells; host or cells: CHO cells (membrane fraction)
T1 sequence (P34998 24-415): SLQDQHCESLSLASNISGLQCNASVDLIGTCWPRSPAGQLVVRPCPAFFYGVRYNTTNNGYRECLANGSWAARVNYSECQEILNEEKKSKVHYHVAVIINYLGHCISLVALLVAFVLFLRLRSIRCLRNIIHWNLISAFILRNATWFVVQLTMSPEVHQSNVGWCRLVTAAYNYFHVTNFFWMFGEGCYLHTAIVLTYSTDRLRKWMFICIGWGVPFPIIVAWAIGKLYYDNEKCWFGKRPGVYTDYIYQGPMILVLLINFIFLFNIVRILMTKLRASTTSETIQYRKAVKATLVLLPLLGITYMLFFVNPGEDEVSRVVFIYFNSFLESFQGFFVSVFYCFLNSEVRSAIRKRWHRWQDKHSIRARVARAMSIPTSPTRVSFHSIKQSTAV
The assay is described as follows: Measurement of Corticotropin-Releasing Factor (CRF) Binding Inhibitory Rate. The conditions noted are these: 1000 nM test compound; human CRF receptor expressing CHO cellular membrane fraction; 50 pM 125I-CRF; room temperature 1 hour. The procedure: Measurement of Corticotropin-Releasing Factor (CRF) Binding Inhibitory Rate
A receptor binding experiment was carried out using a human CRF receptor expressing CHO cellular membrane fraction and sheep CRF, [^125I]-tyr^0(^125I-CRF). 1000 nM of a test compound was incubated with 1 μg of human CRF receptor expressing CHO cellular membrane fraction and 50 pM of ^125I-CRF in a binding assay buffer (50 mM Tris-HCl, 5 mM EDTA, 10 mM MgCl2, 0.05% CHAPS, 0.1% BSA, 0.5 mM PMSF, […] pepstatin, 20 μg/ml leupeptin, pH 7.5). In addition, for measuring nonspecific binding (NSB), 0.1 μM unlabelled human Urocortin was incubated with 1 μg of human CRF receptor expressing CHO cellular membrane fraction and 50 pM of ^125I-CRF in a binding assay buffer. After a binding reaction was carried out at room temperature for 1 hour, the membrane was entrapped on a glass filter (UniFilter plate GF-C/Perkin Elmer) by suction filtration using a cell harvester (Perkin Elmer), and washed with ice-cooled 50 mM Tris-HCl (pH 7.5). After drying the glass filter, a liquid scintillation cocktail (Microscinti 0, Perkin Elmer) was added, and the radioactivity of ^125I-CRF remaining on a glass filter was measured using Topcount (Perkin Elmer).
(TB−SB)/(TB−NSB)×100 (SB: radioactivity when a compound is added, TB: maximum binding radioactivity, NSB: nonspecific binding radioactivity) was calculated to obtain a binding inhibitory rate under the presence of 1,000 nM or 100 nM of each test substances.
The compound `CCCN(CCC)c1cccc2nc(Nc3c(C)cc(C)cc3C)n(C)c12` [Example 26, N^2-Mesityl-1-methyl-N^7,N^7-dipropyl-1H-benzimidazole-2,7-diamine] displayed an inhibition at 1 µM greater than 80%.

In turn, `CCCN(CCC)c1cccc2nc(Nc3c(C)cc(C)cc3Cl)n(C)c12` [Example 42, N^2-(2-chloro-4,6-dimethylphenyl)-1-methyl-N^7,N^7-dipropyl-1H-benzimidazole-2,7-diamine] registered an inhibition at 1 µM greater than 80%.

`CCCN(CCC)c1cccc2nc(Nc3cc(OC)c(OC)cc3C)n(C)c12` [Example 46, N^2-(4,5-dimethoxy-2-methylphenyl)-1-methyl-N^7,N^7-dipropyl-1H-benzimidazole-2,7-diamine] had an inhibition at 1 µM greater than 80%.

As to `COc1ccc(N(c2cccc3nc(Nc4c(C)cc(Cl)cc4OC)n(C)c23)C(C)C)cc1` [Example 145, N^2-(4-chloro-2-methoxy-6-methylphenyl)-N^7-isopropyl-N^7-(4-methoxyphenyl)-1-methyl-1H-benzimidazole-2,7-diamine], the inhibition at 1 µM is greater than 80%.

The compound `CCC1CCCCN1c1cccc2nc(Nc3c(C)cc(Br)cc3OC)n(C)c12` (centres unmarked) [Example 183, N-(4-Bromo-2-methoxy-6-methylphenyl)-7-(2-ethyl-1-piperidinyl)-1-methyl-1H-benzimidazol-2-amine] gave an inhibition at 1 µM greater than 80%.
